Results: paper PMC12645083, “Microwave‐Enhanced Synthesis of 2‐Styrylquinoline‐4‐Carboxamides With Promising Anti‐Lymphoma Activity” (Archiv Der Pharmazie, 2025)
Read-outs that look alike come from different tables or passages of the source.

Columns and labels:
Format in all cases: cell-based
SU-DHL-18 = experiment: Antiproliferative activity on lymphoma-derived cell lines, resazurin; conditions: Homo sapiens; lymph node lymphoma; 72 h of treatment; mean ± SEM
Protocol: (§1) To test the newly synthesized compounds, various human cell lines were employed. HD‐MB03 cells were purchased from DSMZ (Braunschweig, Germany), while A549, MDA‐MB‐231, RPMI‐8420, SU‐DHL‐8, TOLEDO, VL51, SU‐DHL‐1, SU‐DHL‐18, and KM‐H2 were obtained from ATCC (Manassas, VA, USA). Cells were cultured in DMEM (for MDA‐MB‐231 and A549) or RPMI‐1640 (for RPMI‐8420, SU‐DHL‐8, TOLEDO, VL51, SU‐DHL‐1, SU‐DHL‐18, KM‐H2, and HD‐MB03) media (Gibco, Milan, Italy). Both media were supplemented with 115 units/mL penicillin G (Gibco, Milan, Italy), 115 µg/mL streptomycin (Invitrogen, Milan, Italy), and 10% fetal bovine serum (Invitrogen, Milan, Italy). Peripheral blood mononuclear cells (PBMCs) were isolated from healthy donors as previously described. For cytotoxicity assays, PBMCs were resuspended at 5 × 10⁵ cells/mL in complete RPMI medium with or without 2.5 µg/mL phytohemagglutinin (PHA) (Irvine Scientific) to stimulate T‐cell activation and proliferation. All cell lines were maintained at 37°C in a humidified atmosphere containing 5% CO₂. All compounds were dissolved in DMSO at a 10 mM stock concentration. For dose–response assays, cells were seeded in 96‐well plates at densities optimized for each cell line: HD‐MB03 at 10,000 cells/well, A549 at 4000 cells/well, and MDA‐MB‐231 at 7000 cells/well. All other cell lines were seeded at 20,000 cells/well in a final volume of 100 µL per well. After 24 h, cells were treated with a 6‐point serial dilution of compounds starting from 10 µM, in triplicate for statistical analysis. Seventy‐2 h posttreatment, 10 µL of resazurin solution (100 µg/mL) was added to each well, and cells were incubated for an additional 3–6 h. Fluorescence was measured using a Spark 10 M microplate reader (Tecan Group Ltd., Männedorf, Switzerland) with excitation at 535 nm and emission at 600 nm. The IC₅₀ was defined as the concentration of compound required to inhibit cell proliferation by 50% compared to cells treated with the highest DMSO concentration.
(§2) To test the newly synthesized compounds, various human cell lines were employed. HD-MB03 cells were purchased from DSMZ (Braunschweig, Germany), while A549, MDA-MB-231, RPMI-8420, SU-DHL-8, TOLEDO, VL51, SU-DHL-1, SU-DHL-18, and KM-H2 were obtained from ATCC (Manassas, VA, USA). Cells were cultured in DMEM (for MDA-MB-231 and A549) or RPMI-1640 (for RPMI-8420, SU-DHL-8, TOLEDO, VL51, SU-DHL-1, SU-DHL-18, KM-H2, and HD-MB03) media (Gibco, Milan, Italy). Both media were supplemented with 115 units/mL penicillin G (Gibco, Milan, Italy), 115 µg/mL streptomycin (Invitrogen, Milan, Italy), and 10% fetal bovine serum (Invitrogen, Milan, Italy). Peripheral blood mononuclear cells (PBMCs) were isolated from healthy donors as previously described. ^[1] For cytotoxicity assays, PBMCs were resuspended at 5 × 10⁵ cells/mL in complete RPMI medium with or without 2.5 µg/mL phytohemagglutinin (PHA) (Irvine Scientific) to stimulate T cell activation and proliferation. All cell lines were maintained at 37 °C in a humidified atmosphere containing 5% CO₂. All compounds were dissolved in DMSO at a 10 mM stock concentration. For dose–response assays, cells were seeded in 96-well plates at densities optimized for each cell line: HD-MB03 at 10,000 cells/well, A549 at 4,000 cells/well, and MDA-MB-231 at 7,000 cells/well. All other cell lines were seeded at 20,000 cells/well in a final volume of 100 µL per well. After 24 hours, cells were treated with a 6-point serial dilution of compounds starting from 10 µM, in triplicate for statistical analysis. Seventy-two hours post-treatment, 10 µL of resazurin solution (100 µg/mL) was added to each well, and cells were incubated for an additional 3–6 hours. Fluorescence was measured using a Spark 10M microplate reader (Tecan Group Ltd., Männedorf, Switzerland) with excitation at 535 nm and emission at 600 nm. […]

TOLEDO = experiment: as above; conditions: Homo sapiens, diffuse large B-cell lymphoma, 72 h of treatment, mean ± SEM
Protocol: as §1, §2

VL51 = experiment: as above; conditions: Homo sapiens, splenic B-cell lymphoma, 72 h of treatment, mean ± SEM
Protocol: as §1, §2

[1] = tested on: peripheral blood mononuclear cells (PBMCs); experiment: Antiproliferative/cytotoxicity assay on PBMCs from a healthy donor; conditions: Homo sapiens, PBMC
Protocol: To assess the potential toxicity of the most promising quinoline derivatives 4i, 4n, 4s, and 4ah, an antiproliferative assay was performed, using peripheral blood mononuclear cells (PBMCs) isolated from a healthy donor.
as §1
as §2, with “hours.” for “hours. Fluorescence was measured using a Spark 10M microplate reader (Tecan Group Ltd., Männedorf, Switzerland) with excitation at 535 nm and emission at 600 nm.”

[2] = PBMCs stimulated with 2.5 µg/mL PHA, read-out: IC50 phytohemagglutinin-stimulated PBMCs
[3] = resting PBMCs from a healthy donor, read-out: IC50 resting PBMCs

Row | IC50 (SU-DHL-18) | IC50 (TOLEDO) | IC50 (VL51) | Compound | IC50 [1, 2] | IC50 [1, 3]
1 | 3.79 ± 0.51 µM | 4.93 ± 0.62 µM | > 10 µM | O=C(Nc1ccc(Cl)cc1)c1cc(/C=C/c2ccccc2[N+](=O)[O-])nc2ccccc12 [4ah, (E)-N-(4-chlorophenyl)-2-(2-nitrostyryl)quinoline-4-carboxamide] | > 10 µM | > 10 µM
2 | 7.6 ± 2.8 µM | 1.05 ± 0.09 µM | 1.03 ± 0.02 µM | O=C(Nc1ccc([N+](=O)[O-])cc1)c1cc(/C=C/c2ccccc2)nc2ccccc12 [4i, (E)-N-(4-nitrophenyl)-2-styrylquinoline-4-carboxamide] | > 10 µM | > 10 µM
3 | > 10 µM | > 10 µM | > 10 µM | COc1cc(/C=C/c2cc(C(=O)Nc3c(C)cccc3C)c3ccccc3n2)cc(OC)c1OC [4n, (E)-N-(2,6-dimethylphenyl)-2-(3,4,5-trimethoxystyryl)quinoline-4-carboxamide] | > 10 µM | > 10 µM
4 | > 10 µM | > 10 µM | > 10 µM | COc1cc(/C=C/c2cc(C(=O)Nc3ccc([N+](=O)[O-])cc3)c3ccccc3n2)cc(OC)c1OC [4s, (E)-N-(4-nitrophenyl)-2-(3,4,5-trimethoxystyryl)quinoline-4-carboxamide] | > 10 µM | > 10 µM
